Results published in ChEMBL document CHEMBL5154781, “Discovery of Novel Sertraline Derivatives as Potent Anti-Cryptococcus Agents” (J Med Chem, 2022).
Values after ≈ are worked out from the molar mass of the structure shown. Active and inactive are the calls of the source. The calls are words filed in the database; no cut-off is given here.

Key:
Cryptococcus neoformans [1] = test: microbe, parasite or virus in culture; type: functional, organism-based; conditions: H99, 72 h
Description: Anti-cryptococcal activity against Cryptococcus neoformans H99 assessed as inhibition of fungal growth incubated for 72 hrs by microdilution method

[2] = Metabolic stability in mouse liver microsomes assessed as half life; type: ADME, Microsome
[3] = Metabolic stability in mouse liver microsomes assessed as clearance; type: ADME, Microsome
[4] = […] in ICR mouse model of Cryptococcal meningitis infected with Cryptococcus neoformans H99 assessed as median survival time at 15 mg/kg, IG administered daily (reference value: 11 day); type: organism-based; conditions: in vivo, po, 264 h
Candida albicans [5] = test: microbe, parasite or virus in culture; type: functional, organism-based; conditions: SC5314, 48 h
Description: Antifungal activity against Candida albicans SC5314 assessed as inhibition of fungal growth incubated for 48 hrs by microdilution method

Cryptococcus neoformans [6] = test: Inhibition of Cryptococcus neoformans H99 delta5,6-desaturase assessed as blockade of ergosterol biosynthesis pretreated at 3 ug/ml followed by addition of ERG enzymes incubated for 24 hrs in presence of NADPH by GC-MS analysis; conditions: dose 3.0 µg/ml
Pichia kudriavzevii = test: microbe, parasite or virus in culture; type: functional, organism-based; conditions: Pichia kudriavzevii, 10153, 48 h
Description: Antifungal activity against Candida krusei 10153 assessed as inhibition of fungal growth incubated for 48 hrs by microdilution method

Cryptococcus neoformans [7] = test: Fungicidal activity against Cryptococcus neoformans H99 assessed as fungal growth inhibition incubated upto 72 hrs by time-fungicidal curve assay; type: functional
Cryptococcus neoformans [8] = test: Anti-cryptococcal activity against Cryptococcus neoformans H99 assessed as efflux of cell contents at 4 ug/ml incubated for 8 hrs by transmission electron microscopy; type: functional, organism-based; conditions: dose 4.0 µg/ml
Cryptococcus neoformans [9] = test: Anti-cryptococcal activity against Cryptococcus neoformans H99 assessed as inhibition of fungal growth at 1 ug/ml measured after 72 hrs by time-growth curve assay; type: functional, organism-based; conditions: dose 1.0 µg/ml
Cryptococcus neoformans [10] = test: Inhibition of Cryptococcus neoformans H99 delta5,6-desaturase assessed as change in sterol content at 2 ug/ml incubated for 24 hrs by GC-MS analysis; conditions: dose 2.0 µg/ml
[11] = Cytotoxicity against HUVEC cells; conditions: human
[12] = microbe, parasite or virus in culture; type: functional; conditions: Cryptococcus; time 72 hrs
Description: Anti-cryptococcal activity against Cryptococcus assessed as inhibition of fungal growth incubated for 72 hrs by microdilution method

Candida albicans [13] = test: Antifungal activity against Candida albicans SC3514 assessed as low level of ergosta-7,22-dien-3-ol at 2 ug/ml incubated for 24 hrs in presence of NADPH by GC-MS analysis; type: functional, organism-based; conditions: dose 2.0 µg/ml
Candida albicans [14] = test: Antifungal activity against Candida albicans SC3514 assessed as decrease in ergosterol content at 2 ug/ml incubated for 24 hrs in presence of NADPH by GC-MS analysis; type: functional, organism-based; conditions: dose 2.0 µg/ml
Cryptococcus neoformans [15] = test: Inhibition of Cryptococcus neoformans H99 delta5,6-desaturase assessed as upregulation of ERG24 gene expression at 2 ug/ml incubated for 24 hrs by RT-PCR analysis; conditions: dose 2.0 µg/ml
Cryptococcus neoformans [16] = test: Anti-cryptococcal activity against Cryptococcus neoformans H99 assessed as cell membrane damage at 4 ug/ml incubated for 8 hrs by transmission electron microscopy; type: functional, organism-based; conditions: dose 4.0 µg/ml
Cryptococcus neoformans [17] = test: Inhibition of Cryptococcus neoformans H99 delta5,6-desaturase assessed as decrease in ergosterol level at 1 ug/ml incubated for 24 hrs by GC-MS analysis; conditions: dose 1.0 µg/ml
[Candida] auris [18] = microbe, parasite or virus in culture; type: functional, organism-based; conditions: Candidozyma auris, 0029, 48 h
Description: Antifungal activity against Candida auris 0029 assessed as inhibition of fungal growth incubated for 48 hrs by microdilution method

Cryptococcus neoformans [19] = test: Inhibition of Cryptococcus neoformans H99 delta5,6-desaturase assessed as upregulation of ERG2 gene expression at 2 ug/ml incubated for 24 hrs by RT-PCR analysis; conditions: dose 2.0 µg/ml
Candida albicans [20] = test: Upregulation of ERG11 in Candida albicans SC3514 at 0.5 ug/ml incubated for 24 hrs by RT-PCR analysis; type: functional; conditions: dose 0.5 µg/ml
Cryptococcus neoformans [21] = test: Anti-cryptococcal activity against Cryptococcus neoformans H99 assessed as cell membrane damage at 0.5 to 4 ug/ml incubated for 8 hrs by transmission electron microscopy; type: functional, organism-based; conditions: dose 0.5-4 µg/ml, DDE = dose-dependent effect
Nakaseomyces glabratus [22] = test: microbe, parasite or virus in culture; type: functional, organism-based; conditions: Nakaseomyces glabratus, 9073, 48 h
Description: Antifungal activity against Candida glabrata 9073 assessed as inhibition of fungal growth incubated for 48 hrs by microdilution method

Nakaseomyces glabratus [23] = test: microbe, parasite or virus in culture; type: functional, organism-based; conditions: Nakaseomyces glabratus, 9025, 48 h
Description: Antifungal activity against Candida glabrata 9025 assessed as inhibition of fungal growth incubated for 48 hrs by microdilution method

Cryptococcus neoformans [24] = test: Anti-cryptococcal activity against Cryptococcus neoformans H99 assessed as inhibition of fungal growth at 8 ug/ml measured after 72 hrs by time-growth curve assay; type: functional; design: scale not given: the % may be the effect or the level left; conditions: dose 8 µg/ml
Candida tropicalis = test: microbe, parasite or virus in culture; type: functional, organism-based; conditions: Candida tropicalis, 10186, 48 h
Description: Antifungal activity against Candida tropicalis 10186 assessed as inhibition of fungal growth incubated for 48 hrs by microdilution method

Aspergillus fumigatus [25] = test: microbe, parasite or virus in culture; type: functional, organism-based; conditions: 023-2, 48 h
Description: Antifungal activity against Aspergillus fumigatus 023-2 assessed as inhibition of fungal growth incubated for 48 hrs by microdilution method

Cryptococcus neoformans [26] = test: Inhibition of Cryptococcus neoformans H99 delta5,6-desaturase assessed as increase in ergosta-7,22-dien-3-ol levels at 0.125 to 2 ug/ml incubated for 24 hrs by GC-MS analysis; conditions: dose 0.125-2 µg/ml, DDE = dose-dependent effect
Cryptococcus neoformans [27] = test: Inhibition of Cryptococcus neoformans H99 delta5,6-desaturase assessed as upregulation of ERG3 under stress condition at 0.25 to 1 ug/ml incubated for 24 hrs by RT-PCR analysis; conditions: dose 0.25-1 µg/ml, DDE = dose-dependent effect
Cryptococcus neoformans [28] = test: Inhibition of Cryptococcus neoformans H99 delta5,6-desaturase assessed as upregulation of ERG11 at 0.25 to 1 ug/ml incubated for 24 hrs by RT-PCR analysis; conditions: dose 0.25-1 µg/ml, DDE = dose-dependent effect
Cryptococcus neoformans [29] = test: Inhibition of biofilm formation in Cryptococcus neoformans H99 at 2 ug/ml incubated for 24 hrs by XTT reduction assay; type: functional
Cryptococcus = test: Fungicidal activity against Cryptococcus assessed as ratio of MFC to MIC; type: functional
Cryptococcus neoformans [30] = test: Inhibition of Cryptococcus neoformans H99 delta5,6-desaturase assessed as upregulation of ERG3 gene expression at 2 ug/ml incubated for 24 hrs by RT-PCR analysis; conditions: dose 2.0 µg/ml
Cryptococcus neoformans [31] = test: Inhibition of Cryptococcus neoformans H99 delta5,6-desaturase assessed as upregulation of ERG4 gene expression at 2 ug/ml incubated for 24 hrs by RT-PCR analysis; conditions: dose 2.0 µg/ml
Candida albicans [32] = test: Upregulation of ERG3 in Candida albicans SC3514 at 0.5 ug/ml incubated for 24 hrs by RT-PCR analysis; type: functional; conditions: dose 0.5 µg/ml
Cryptococcus neoformans [33] = test: Inhibition of Cryptococcus neoformans H99 delta5,6-desaturase assessed as blockade of ergosterol biosynthesis at 0.5 ug/ml pretreated with ERG enzymes followed by compound addition incubated for 24 hrs in presence of NADPH by GC-MS analysis; conditions: dose 0.5 µg/ml
[Candida] auris [34] = Antifungal activity against Candida auris 15448 assessed as inhibition of fungal growth incubated for 48 hrs by microdilution method; type: functional, organism-based; conditions: Candidozyma auris, 15448, 48 h
Cryptococcus neoformans [35] = test: Inhibition of Cryptococcus neoformans H99 delta5,6-desaturase assessed as upregulation of ERG5 gene expression at 2 ug/ml incubated for 24 hrs by RT-PCR analysis; conditions: dose 2.0 µg/ml
[Candida] auris [36] = microbe, parasite or virus in culture; type: functional, organism-based; conditions: Candidozyma auris, 0030, 48 h
Description: Antifungal activity against Candida auris 0030 assessed as inhibition of fungal growth incubated for 48 hrs by microdilution method

Aspergillus fumigatus [37] = test: microbe, parasite or virus in culture; type: functional, organism-based; conditions: Aspergillus fumigatus, 7544, 48 h
Description: Antifungal activity against Aspergillus fumigatus 7544 assessed as inhibition of fungal growth incubated for 48 hrs by microdilution method

Cryptococcus neoformans [38] = test: Inhibition of Cryptococcus neoformans H99 delta5,6-desaturase assessed as upregulation of ERG1 gene expression at 2 ug/ml incubated for 24 hrs by RT-PCR analysis; conditions: dose 2.0 µg/ml
Candida albicans [39] = test: microbe, parasite or virus in culture; type: functional, organism-based; conditions: Candida albicans, 904, 48 h
Description: Antifungal activity against Candida albicans 904 assessed as inhibition of fungal growth incubated for 48 hrs by microdilution method

Cryptococcus neoformans [40] = test: Inhibition of Cryptococcus neoformans H99 delta5,6-desaturase assessed as upregulation of ERG11 gene expression at 2 ug/ml incubated for 24 hrs by RT-PCR analysis; conditions: dose 2.0 µg/ml
Candida albicans [41] = test: microbe, parasite or virus in culture; type: functional, organism-based; conditions: Candida albicans, 0304103, 48 h
Description: Antifungal activity against Candida albicans 0304103 assessed as inhibition of fungal growth incubated for 48 hrs by microdilution method

Cryptococcus neoformans [42] = test: Inhibition of biofilm formation in Cryptococcus neoformans H99 at 0.5 to 8 ug/ml incubated for 24 hrs by XTT reduction assay; type: functional, organism-based; conditions: dose 0.5-8 µg/ml, DDE = dose-dependent effect

In the case of `CN1CCC(CCNC2CCC(c3ccc(Cl)c(Cl)c3)c3sccc32)CC1.Cl` (stereo unspecified), the IC50 (Cryptococcus neoformans [1]) is reported as 2 µg/mL.
Work on `CN(C)C1CCC(c2ccc(Cl)c(Cl)c2)c2sccc21.Cl` (stereo unspecified) yielded an IC50 (Cryptococcus neoformans [1]) of 32 µg/mL.
Compound `CC(C)(C)CNC1CCC(c2ccc(Cl)c(Cl)c2)c2sccc21.Cl` (stereo unspecified) has an IC50 (Cryptococcus neoformans [1]) of 4 µg/mL.
`CN[C@H]1CC[C@@H](c2ccc(Cl)c(Cl)c2)c2ccccc21` [SERTRALINE] showed a half-life [2] of 41.5 min, a CLH [3] of 132 µL/min/mg and an MST [4] of 11.5 days.
`Cl.Clc1ccc(C2CCC(NCc3ccccc3)c3ccsc32)cc1Cl` (stereo unspecified) gave an IC50 (Cryptococcus neoformans [1]) of 32 µg/mL.
For `Cl.Clc1ccc(C2CCC(NCCC3CCOCC3)c3ccsc32)cc1Cl` (stereo unspecified), the IC50 (Candida albicans [5]) was 32 µg/mL, the Activity (Cryptococcus neoformans [6]) was “Active” and the IC50 (Pichia kudriavzevii) was 8 µg/mL. For the same compound, the MFC (Cryptococcus neoformans [7]) was 8 µg/mL, the Activity (Cryptococcus neoformans [8]) was “Active” and the Activity (Cryptococcus neoformans [9]) was “Active”. The Activity (Cryptococcus neoformans [10]) was “Active”, the IC50 [11] was 20.2 µM and the MIC50 [12] was 0.62 µg/mL. For the same compound, the Activity (Candida albicans [13]) was “Active”, the Activity (Candida albicans [14]) was “Active” and the Activity (Cryptococcus neoformans [15]) was “Active”. The Activity (Cryptococcus neoformans [16]) was “Active”, the Activity (Cryptococcus neoformans [17]) was “Active” and the IC50 ([Candida] auris [18]) was 16 µg/mL. The half-life [2] was 40.1 min, the Activity (Cryptococcus neoformans [19]) was “Active” and the Activity (Candida albicans [20]) was “Active”. For the same compound, the CLH [3] was 136 µL/min/mg, the Activity (Cryptococcus neoformans [21]) was “Dde” and the IC50 (Nakaseomyces glabratus [22]) was 32 µg/mL. For the same compound, the IC50 (Nakaseomyces glabratus [23]) was 8 µg/mL, the Activity (Cryptococcus neoformans [24]) was 100% and the MST [4] was 14 days. For the same compound, the IC50 (Candida tropicalis) was 32 µg/mL, the IC50 (Aspergillus fumigatus [25]) was 32 µg/mL and the Activity (Cryptococcus neoformans [26]) was “Dde”. For the same compound, the Activity (Cryptococcus neoformans [27]) was “Dde”, the Activity (Cryptococcus neoformans [28]) was “Dde” and the inhibition at 2 µg/mL (Cryptococcus neoformans [29]) was 50%. The Ratio (Cryptococcus) was 7.47, the Activity (Cryptococcus neoformans [30]) was “Active” and the Activity (Cryptococcus neoformans [31]) was “Active”. For the same compound, the Activity (Candida albicans [32]) was “Active”, the Activity (Cryptococcus neoformans [33]) was “Active” and the IC50 ([Candida] auris [34]) was 8 µg/mL. For the same compound, the Activity (Cryptococcus neoformans [35]) was “Active”, the IC50 ([Candida] auris [36]) was 8 µg/mL and the IC50 (Aspergillus fumigatus [37]) was 32 µg/mL. For the same compound, the Activity (Cryptococcus neoformans [38]) was “Active”, the IC50 (Cryptococcus neoformans [1]) was 0.5 µg/mL and the IC50 (Candida albicans [39]) was 32 µg/mL. For the same compound, the Activity (Cryptococcus neoformans [40]) was “Active”, the IC50 (Candida albicans [41]) was 32 µg/mL and the inhibition (Cryptococcus neoformans [42]) was “Dde”.
Compound `Cl.Clc1ccc(C2CCC(NCCC3CCCCC3)c3ccsc32)cc1` (stereo unspecified) has an IC50 (Cryptococcus neoformans [1]) of 64 µg/mL.
`Cl.O=C(CNC1CCC(c2ccc(Cl)c(Cl)c2)c2sccc21)N1CCCCC1` (stereo unspecified) gave an IC50 (Cryptococcus neoformans [1]) of 8 µg/mL.
Work on `CC(C)NC1CCC(c2ccc(Cl)c(Cl)c2)c2sccc21.Cl` (stereo unspecified) yielded an IC50 (Cryptococcus neoformans [1]) of 16 µg/mL.
`Cl.Clc1ccc(C2CCC(NC3CCCCC3)c3ccsc32)cc1Cl` (stereo unspecified) gave an IC50 (Cryptococcus neoformans [1]) of 8 µg/mL.
For `C[C@@H]1[C@H](O)[C@@H](C)/C=C/C=C/C=C/C=C/C=C/C=C/C=C/[C@H](O[C@@H]2O[C@H](C)[C@@H](O)[C@H](N)[C@@H]2O)C[C@@H]2O[C@](O)(C[C@@H](O)C[C@@H](O)[C@H](O)CC[C@@H](O)C[C@@H](O)CC(=O)O[C@H]1C)C[C@H](O)[C@H]2C(=O)O` [AMPHOTERICIN B], the MFC (Cryptococcus neoformans [7]) was 4 µg/mL (≈ 4.33 µM), the MIC50 [12] was 0.13 µg/mL (≈ 0.141 µM) and the IC50 (Cryptococcus neoformans [1]) was 0.25 µg/mL (≈ 0.271 µM).
Compound `Cc1ccc(C2CCC(NCCC3CCCCC3)c3ccsc32)cc1C.Cl` (stereo unspecified) has an IC50 (Cryptococcus neoformans [1]) of 32 µg/mL.
Work on `Cl.Clc1ccc(C2CCC(NC3CC3)c3ccsc32)cc1Cl` (stereo unspecified) yielded an IC50 (Cryptococcus neoformans [1]) of 16 µg/mL.
